Legend:
Type in all cases: in vivo
STEME (Stellaria media) = experiment: greenhouse pre-emergence herbicidal test
Excerpt: (§1) The culture containers used were plastic flowerpots containing loamy sand with approximately 3.0% of humus as the substrate. The seeds of the test plants were sown separately for each species.
(§2) For the pre-emergence treatment, the active ingredients, which had been suspended or emulsified in water, were applied directly after sowing by means of finely distributing nozzles. The containers were irrigated gently to promote germination and growth and subsequently covered with transparent plastic hoods until the plants had rooted. This cover caused uniform germination of the test plants, unless this had been impaired by the active ingredients.
(§3) Depending on the species, the plants were kept at 10-25° C. or 20-35° C., respectively.
(§4) The test period extended over 2 to 4 weeks. During this time, the plants were tended, and their response to the individual treatments was evaluated.
(§5) Evaluation was carried out using a scale from 0 to 100. 100 means no emergence of the plants, or complete destruction of at least the aerial moieties, and 0 means no damage, or normal course of growth. A moderate herbicidal activity is given at values of at least 60, a good herbicidal activity is given at values of at least 70, and a very good herbicidal activity is given at values of at least 85.
(§6) The plants used in the greenhouse experiments were of the following species: […]

[1] = tested on: CAPBP (Capsella bursa-pastoris); experiment: greenhouse pre-emergence herbicidal test; settings: CAPBP
Excerpt: as §1, §2, §3, §4, §5, §6

[2] = tested on: AMARE (Amaranthus retroflexus); experiment: greenhouse pre-emergence herbicidal test
Excerpt: (§7) The seeds of the test plants were sown separately for each species. For the pre-emergence treatment, the active ingredients, which had been suspended or emulsified in water, were applied directly after sowing by means of finely distributing nozzles. The containers were irrigated gently to promote germination and growth and subsequently covered with transparent plastic hoods until the plants had rooted. This cover caused uniform germination of the test plants, unless this had been impaired by the active ingredients. Depending on the species, the plants were kept at 10-25° C. or 20-35° C., respectively. The test period extended over 2 to 4 weeks. During this time, the plants were tended, and their response to the individual treatments was evaluated. […] A moderate herbicidal activity is given at values of at least 60, a good herbicidal activity is given at values of at least 70, and a very good herbicidal activity is given at values of at least 85. The plants used in the greenhouse experiments were of the following species: [table]

[3] = tested on: ABUTH (Abutilon theophrasti); experiment: greenhouse pre-emergence herbicidal test
Excerpt: as §7

[4] = tested on: ECHCG (Echinocloa crus-galli); experiment: greenhouse pre-emergence herbicidal test
Excerpt: as §1, §2, §3, §4, §5, §6

[5] = tested on: AMARE (Amaranthus retroflexus); experiment: greenhouse post-emergence herbicidal test; settings: 0.031 kg/ha
Excerpt: as §1
For the post-emergence treatment, the test plants were first grown to a height of 3 to 15 cm, depending on the plant habit, and only then treated with the active ingredients which had been suspended or emulsified in water. For this purpose, the test plants were either sown directly and grown in the same containers, or they were first grown separately as seedlings and transplanted into the test containers a few days prior to treatment.
as §3, §4, §5, §6

For `CCCC(F)(CC)c1nc(N)nc(Nc2c(F)c(F)c(F)c(F)c2F)n1` (centres unmarked) [Example 50], the herbicidal activity (STEME (Stellaria media); 0.125 kg/ha) was “very good (a very good herbicidal activity is given at values of at least 85)” and the herbicidal activity ([1]; 0.125 kg/ha) was “very good (a very good herbicidal activity is given at values of at least 85)”.
`COc1cccc(OC)c1Nc1nc(N)nc(C(C)(C)F)n1` [Example 47] was tested, and the herbicidal activity ([2]; 0.125 kg/ha) was “very good (a very good herbicidal activity is given at values of at least 85)”.
With `CCOc1ccc(F)c(Nc2nc(N)nc(C(C)(C)F)n2)c1F` [Example 44] the herbicidal activity ([3]; 0.125 kg/ha) was “very good (a very good herbicidal activity is given at values of at least 85)” and the herbicidal activity ([2]; 0.125 kg/ha) was “very good (a very good herbicidal activity is given at values of at least 85)”.
In the case of `Nc1nc(CF)nc(Nc2c(F)c(F)cc(F)c2F)n1` [Example 198], the herbicidal activity ([2]; 119 g/ha) is reported as “very good (a very good herbicidal activity is given at values of at least 85)”.
With `Nc1nc(Nc2c(F)c(F)c(F)c(F)c2F)nc(C(F)F)n1` [Example 121] the herbicidal activity ([3]; 250 g/ha) was “very good (a very good herbicidal activity is given at values of at least 85)” and the herbicidal activity ([2]; 250 g/ha) was “very good (a very good herbicidal activity is given at values of at least 85)”.
In the case of `N#Cc1cccc(F)c1Nc1nc(N)nc(C(F)F)n1` [Example 149], the herbicidal activity (STEME (Stellaria media); 250 g/ha) is reported as “good (a good herbicidal activity is given at values of at least 70)”.
In the case of `CC(C)(C)c1nc(N)nc(Nc2c(F)cccc2C#N)n1` [Example 135], the herbicidal activity ([4]; 500 g/ha) is reported as “very good (a very good herbicidal activity is given at values of at least 85)”, the herbicidal activity ([3]; 500 g/ha) is reported as “very good (a very good herbicidal activity is given at values of at least 85)” and the herbicidal activity ([2]; 500 g/ha) is reported as “very good (a very good herbicidal activity is given at values of at least 85)”.
In the case of `Nc1nc(Nc2c(F)ccc(F)c2F)nc(C(F)F)n1` [Example 123], the herbicidal activity ([4]; 250 g/ha) is reported as “good (a good herbicidal activity is given at values of at least 70)”, the herbicidal activity ([3]; 250 g/ha) is reported as “good (a good herbicidal activity is given at values of at least 70)” and the herbicidal activity ([2]; 250 g/ha) is reported as “very good (a very good herbicidal activity is given at values of at least 85)”.
`Nc1nc(CC(F)(F)F)nc(Nc2c(F)c(F)c(F)c(F)c2F)n1` [Example 72] was tested, and the herbicidal activity ([3]; 125 g/ha) was “very good (a very good herbicidal activity is given at values of at least 85)” and the herbicidal activity ([2]; 125 g/ha) was “very good (a very good herbicidal activity is given at values of at least 85)”.
`Cc1cccc(F)c1Nc1nc(N)nc(C(C)(C)F)n1` [Example 41] was tested, and the herbicidal activity ([2]; 0.031 kg/ha) was “good (a good herbicidal activity is given at values of at least 70)”.
In the case of `CC(C)c1nc(N)nc(Nc2c(F)ccc(Cl)c2F)n1` [Example 67], the herbicidal activity ([3]; 125 g/ha) is reported as “good (a good herbicidal activity is given at values of at least 70)” and the herbicidal activity ([2]; 125 g/ha) is reported as “very good (a very good herbicidal activity is given at values of at least 85)”.
In the case of `Nc1nc(Nc2c(F)c(F)c(F)c(F)c2F)nc(C(F)(F)C(F)(F)F)n1` [Example 68], the herbicidal activity (STEME (Stellaria media); 125 g/ha) is reported as “very good (a very good herbicidal activity is given at values of at least 85)”, the herbicidal activity ([1]; 125 g/ha) is reported as “very good (a very good herbicidal activity is given at values of at least 85)” and the herbicidal activity ([2]; 125 g/ha) is reported as “very good (a very good herbicidal activity is given at values of at least 85)”.
`Cc1cc(C)cc(Oc2cccc(F)c2Nc2nc(N)nc(C(C)(C)F)n2)c1` [Example 191] was tested, and the herbicidal activity ([4]; 1000 g/ha) was “very good (a very good herbicidal activity is given at values of at least 85)”, the herbicidal activity ([3]; 1000 g/ha) was “very good (a very good herbicidal activity is given at values of at least 85)” and the herbicidal activity ([2]; 1000 g/ha) was “very good (a very good herbicidal activity is given at values of at least 85)”.
`CC(C)(F)c1nc(N)nc(Nc2c(Br)cc(F)c(F)c2F)n1` [Example 34] was tested, and the herbicidal activity (STEME (Stellaria media); 0.125 kg/ha) was “very good (a very good herbicidal activity is given at values of at least 85)” and the herbicidal activity ([1]; 0.125 kg/ha) was “very good (a very good herbicidal activity is given at values of at least 85)”.
For `CC(C)c1nc(N)nc(Nc2c(F)cccc2F)n1` [Example 66], the herbicidal activity ([2]; 62.5 g/ha) was “very good (a very good herbicidal activity is given at values of at least 85)”.
For `CCN(c1nc(N)nc(C(C)(C)F)n1)c1c(F)c(F)c(F)c(F)c1F` [Example 308], the herbicidal activity ([2]; 125 g/ha) was “very good (a very good herbicidal activity is given at values of at least 85)”.
In the case of `COc1ccc(F)c(Nc2nc(N)nc(C(C)(C)F)n2)c1F` [Example 43], the herbicidal activity [5] is reported as “good (a good herbicidal activity is given at values of at least 70)”.
`CCC(C#N)(CC)c1nc(N)nc(Nc2c(F)c(F)cc(F)c2F)n1` [Example 219] was tested, and the herbicidal activity ([3]; 250 g/ha) was “very good (a very good herbicidal activity is given at values of at least 85)” and the herbicidal activity ([2]; 250 g/ha) was “very good (a very good herbicidal activity is given at values of at least 85)”.
`CC=C(C)c1nc(N)nc(Nc2c(F)cccc2F)n1` [Example 124] was tested, and the herbicidal activity ([4]; 1000 g/ha) was “very good (a very good herbicidal activity is given at values of at least 85)”, the herbicidal activity ([3]; 1000 g/ha) was “very good (a very good herbicidal activity is given at values of at least 85)” and the herbicidal activity ([2]; 1000 g/ha) was “very good (a very good herbicidal activity is given at values of at least 85)”.
In the case of `CC(C)(F)c1nc(N)nc(Nc2c(F)cccc2Br)n1` [Example 31], the herbicidal activity [5] is reported as “very good (a very good herbicidal activity is given at values of at least 85)”.
`COC(C)c1nc(N)nc(Nc2c(F)ccc(F)c2F)n1` (centres unmarked) [Example 228] was tested, and the herbicidal activity ([3]; 500 g/ha) was “very good (a very good herbicidal activity is given at values of at least 85)” and the herbicidal activity ([2]; 500 g/ha) was “very good (a very good herbicidal activity is given at values of at least 85)”.
For `CCC(C)c1nc(N)nc(Nc2c(F)c(F)cc(F)c2F)n1` (centres unmarked) [Example 193], the herbicidal activity ([4]; 500 g/ha) was “very good (a very good herbicidal activity is given at values of at least 85)”, the herbicidal activity ([3]; 500 g/ha) was “very good (a very good herbicidal activity is given at values of at least 85)” and the herbicidal activity ([2]; 500 g/ha) was “very good (a very good herbicidal activity is given at values of at least 85)”.
With `CC=C(C)c1nc(N)nc(Nc2c(F)c(F)cc(F)c2F)n1` [Example 206] the herbicidal activity ([2]; 500 g/ha) was “very good (a very good herbicidal activity is given at values of at least 85)”.
In the case of `CC(C#N)c1nc(N)nc(Nc2c(F)c(F)c(F)c(F)c2F)n1` (centres unmarked) [Example 5], the herbicidal activity ([2]; 0.125 kg/ha) is reported as “very good (a very good herbicidal activity is given at values of at least 85)”.
For `Nc1nc(C2CCCC2)nc(N(C(=O)C2CCCC2)c2c(F)ccc(F)c2F)n1` [Example 302], the herbicidal activity ([4]; 1000 g/ha) was “very good (a very good herbicidal activity is given at values of at least 85)”, the herbicidal activity ([3]; 1000 g/ha) was “good (a good herbicidal activity is given at values of at least 70)” and the herbicidal activity ([2]; 1000 g/ha) was “very good (a very good herbicidal activity is given at values of at least 85)”.
With `COc1cccc(F)c1Nc1nc(N)nc(C(C)(C)F)n1` [Example 42] the herbicidal activity ([2]; 0.0625 kg/ha) was “very good (a very good herbicidal activity is given at values of at least 85)”.
`CC(F)c1nc(N)nc(Nc2c(F)c(F)c(Br)c(F)c2F)n1` (centres unmarked) [Example 180] was tested, and the herbicidal activity ([3]; 250 g/ha) was “very good (a very good herbicidal activity is given at values of at least 85)” and the herbicidal activity ([2]; 250 g/ha) was “very good (a very good herbicidal activity is given at values of at least 85)”.
In the case of `CCC(C)(Cl)c1nc(N)nc(Nc2c(F)c(F)c(Br)c(F)c2F)n1` (centres unmarked) [Example 195], the herbicidal activity ([4]; 500 g/ha) is reported as “good (a good herbicidal activity is given at values of at least 70)”, the herbicidal activity ([3]; 500 g/ha) is reported as “good (a good herbicidal activity is given at values of at least 70)” and the herbicidal activity ([2]; 500 g/ha) is reported as “very good (a very good herbicidal activity is given at values of at least 85)”.
With `CC(C)(F)c1nc(N)nc(Nc2c(F)ccc([N+](=O)[O-])c2F)n1` [Example 189] the herbicidal activity ([4]; 507 g/ha) was “very good (a very good herbicidal activity is given at values of at least 85)”, the herbicidal activity ([3]; 507 g/ha) was “very good (a very good herbicidal activity is given at values of at least 85)” and the herbicidal activity ([2]; 507 g/ha) was “very good (a very good herbicidal activity is given at values of at least 85)”.
`CC(C)(C#N)c1nc(N)nc(Nc2c(F)c(F)c(F)c(F)c2F)n1` [Example 64] was tested, and the herbicidal activity (STEME (Stellaria media); 125 g/ha) was “very good (a very good herbicidal activity is given at values of at least 85)”, the herbicidal activity ([3]; 125 g/ha) was “very good (a very good herbicidal activity is given at values of at least 85)” and the herbicidal activity ([2]; 125 g/ha) was “very good (a very good herbicidal activity is given at values of at least 85)”.
